Source: patent US6010890A, “Method for viral inactivation and compositions for use in same” (New York Blood Center, Inc., priority 1997, dated 2000)
Entries after “also recorded” stand apart in the source; their conditions may differ. Where two headings read alike, the source gives them in different places.

Legend:
[1] = tested on: RBC; test: Hemolysis after 21 day storage of RBCC treated with liposomal Pc4 and formulations of tocopherol succinate (Example 3); format: cell-based; conditions: with 2 μM liposomal Pc4, 10 J/cm^2, 670 nm, 4° C.
Procedure: RBCC were treated with 2 μM Pc4 in POPC:DOPC=4:1 liposomes in the presence of 1 mM tocopherol succinate in the formulations presented in Table 4 below, and exposed to 10 J/cm^2 of red light (670 nm) emitted by LED array. The RBCC were then stored for 21 days at 4° C.

[2] = tested on: baboon RBC; test: Circulatory survival of baboon RBC after virucidal treatment (preliminary); format: in vivo
[3] = tested on: rabbit RBC
Procedure: Pc4 was added to rabbit RBCC in POPC:DOPS=4:1 liposomes at 2 μM and exposed to 0, 10 and 15 J/cm^2, as indicated, of 700 nm light at room temperature after 5 minutes pre-irradiation incubation. The treated RBCC were labeled with ^51 CrO^2- and their circulatory survival assayed as described in Materials and Methods.
Rabbit RBCC were treated as described for human red cells and their circulatory survival was determined as described previously (Rywkin, S., et al. Photochem. Photobiol. 56:463-469 (1992). Briefly, treated red cells were labelled with 1 μCi/ml Na2 ^51 CrO4 for 1 hour at room temperature and then thoroughly washed with PBS. The labelled cells were infused autologously. At intervals, 1 ml blood was withdrawn and the radioactivity associated with RBC was determined.

[4] = tested on: VSV; format: cell-based; conditions: for Light Dose (for ≥6 log10 virus kill): Pc4 2 μM with 4 mM cysteine, 1 mM tocopherol succinate, 0.5 mM carnitine, 670 nm LED
[5] = tested on: HIV (cell-assoc.); test: Virus inactivation in RBCC using Pc4 and red light: HIV cell-associated (Example 2); format: cell-based
[6] = tested on: HIV; format: cell-based
[7] = tested on: HIV (cell-free); test: Virus inactivation in RBCC using Pc4 and red light: HIV cell-free (Example 2); format: cell-based; conditions: for Light Dose (for ≥6 log10 virus kill): HIV (cell-free), Pc4 2 μM with 4 mM cysteine, 1 mM tocopherol succinate, 0.5 mM carnitine, 670 nm LED
[8] = tested on: RBC; test: Binding of Pc4 to RBC in RBCC (HPLC after extraction); format: in vitro ADME, human; conditions: for Pc4 Bound to RBC: 2 μM
Procedure: The amount of Pc4 bound to RBC in the RBCC was measured using HPLC and extraction procedure described previously (Zuk, M. M., et al. J. Chromat. B Biomed. Appl. 673:220-224 (1995)). Amount of Pc4 was expressed as a percentage of the total recovered in RBCC. Recovery of Pc4 was about 90% (±10%).
^1 Pc4 was added into RBCC at 2 μM final concentration. At various
times thereafter at room temperature, RBC were separated by
centrifugation, rinsed 5 times with PBS, and Pc4 was extracted and
analyzed by HPLC, as described. Pc4 not bound to RBC was recovered
quantitatively from the plasma.
^1 Pc4 was added into RBCC at 2 μM final concentration formulated
in the indicated liposomes. After 35 minutes at 4° C., RBC were
separated by centrifugation, rinsed 5 times with PBS, and Pc4 was analyze

[9] = tested on: BDV; test: Virus inactivation in RBCC using Pc4 and red light: BDV (Example 2); format: cell-based; conditions: for Light Dose (for ≥6 log10 virus kill): Pc4 2 μM with 4 mM cysteine, 1 mM tocopherol succinate, 0.5 mM carnitine, 670 nm LED
[10] = tested on: RBC; test: RBC hemolysis during storage following virucidal treatment (Example 1); format: cell-based, human
Procedure: FIG. 2 represents RBC hemolysis during storage following virucidal treatment. Pc4 was added into RBCC in the indicated delivery vehicle at a final concentration of 2 μM and exposed to 90 J/cm2 broad band red light at room temperature after the indicated incubation time at room temperature. The treated RBCC were stored at 4° C. prior to assay.
FIG. 4 represents RBC hemolysis during storage following virucidal treatment. PC4 was added to RBCC in the indicated liposomal formulations at 2 μM and exposed to 668 nm light at room temperature and the indicated dose after 5 minutes incubation. The treated RBCC were stored at 4° C. prior to assay.
FIG. 6 represents RBC hemolysis during storage following virucidal treatment. […] The treated RBCC were stored at 4° C. prior to assay.
RBCC samples (3 ml in polystyrene tubes) at hematocrit of 58-60% in ADSOL (obtained from Blood Services, New York Blood Center) were irradiated with red light either as a broad band (600-800 nm) or as a narrow band at 668 nm or 700 nm. Broad band light was from a 300 W xenon lamp (Oriel Corp., Stratford, Conn.) equipped with a cutoff filter (λ>600 nm) with an irradiance of 25 mW/cm^2. Narrow band light (27 nm bandwidth at half-height) was from LED arrays (Efos Canada, Inc., Mississauga, Ontario, Canada) emitting at either 668 nm or 700 nm with an irradiance of 50 mW/cm^2. During irradiation the samples were rotated and rolled on a hematology mixer (Fisher Scientific, Inc., Pittsburgh, Pa.) to obtain even exposure. Temperature was kept at 25 or 4° C. by an air stream of appropriate temperature.
Samples of RBCC were stored after treatment at 4° C. The extent of hemolysis was determined by comparing the hemoglobin in the supernatant to the total hemoglobin. The total hemoglobin was determined by using the Drabkin reagent (Sigma Procedure #525, Sigma Chemical Co., St. Louis, Mo.). The absorption at 540 nm was used to calculate the amount of hemoglobin released in the supernatant.

[11] = tested on: VSV; format: cell-based

Cc1c(C)c2c(c(C)c1OC(=O)CCC(=O)O)CCC(C)(CCCC(C)CCCC(C)CCCC(C)C)O2 (stereo not drawn) [α-tocopherol succinate]
Hemolysis After 21 Day Storage ([1]; 1 mM α-tocopherol succinate formulated in Ethanol): 10.5%
Hemolysis After 21 Day Storage ([1]; 1 mM α-tocopherol succinate formulated in POPC:DOPS = 4:1): 18.3%
Hemolysis After 21 Day Storage ([1]; 1 mM α-tocopherol succinate formulated in POPC:DOPS:chol = 9:1:10): 6.1%
Hemolysis After 21 Day Storage ([1]; 1 mM α-tocopherol succinate formulated in POPC): 1.2%

CN(C)CCC[Si](C)(C)O[Si]1(O)n2c3c4ccccc4c2N=C2N=C(N=c4c5ccccc5c(n41)=NC1=NC(=N3)c3ccccc31)c1ccccc12 (stereo not drawn) [Pc4, hydroxysiloxydimethylpropyl-N-dimethyl silicon phthalocyanine]
effect on circulatory survival of red cells ([2]; baboon, 10 J/cm^2 of 700 nm light): only a slight effect
24 hour recovery in vivo of the treated RBC ([2]; baboons): exceeded 90%
circulatory half-life and 24 hour recovery ([2]; baboons, liposomal Pc4, 10 J/cm^2, 700 nm): essentially normal
circulatory half-life of RBC ([2]; baboons, liposomal Pc4 and 10 J/cm2 of 700 nm light, from 13.2 days, preliminary): 278 h
reduction of circulatory survival of red cells ([3]; rabbit, 10 J/cm^2 of 700 nm light (FIG. 7)): about 30%
24 hour recovery in vivo of the treated RBC ([3]; rabbits): exceeded 90%
circulatory half-life of RBC ([3]; rabbits, 10 J/cm^2 of 700 nm light, control 10.5 days (FIG. 7)): 180 h
circulatory half-life and 24 hour recovery ([3]; rabbits, liposomal Pc4, 10 J/cm^2, 700 nm): close to normal
Light Dose (for ≥6 log10 virus kill) ([4]; Blood Bags (50 ml)): 22 J/cm2
Light Dose (for ≥6 log10 virus kill) ([4]; Test Tubes (3 ml)): 5 J/cm2
virus kill ([4]; at the light doses of Table 3): ≥ 6 log10
Light Dose (for ≥6 log10 virus kill) ([5]; Blood Bags (50 ml), Pc4 2 μM with 4 mM cysteine, 1 mM tocopherol succinate, 0.5 mM carnitine, 670 nm LED): 55 J/cm2
Light Dose (at this dose only 4 log10 kill) ([5]; Test Tubes (3 ml), Pc4 2 μM with 4 mM cysteine, 1 mM tocopherol succinate, 0.5 mM carnitine, 670 nm LED): 15 J/cm2
virus kill ([5]; Test Tubes, 15 J/cm2): 4 log10
viral reduction of HIV versus RBC hemolysis [6]: best viral reduction of HIV with the least amount of RBC hemolysis
Light Dose (for ≥6 log10 virus kill) ([7]; Blood Bags (50 ml)): 55 J/cm2
Light Dose (for ≥6 log10 virus kill) ([7]; Test Tubes (3 ml)): 15 J/cm2
virus kill ([7]; HIV, at the light doses of Table 3): ≥ 6 log10
Pc4 binding to RBC at room temperature compared with 4° C. ([8]; POPC:DOPS=9:1 liposomes, Tables 1 and 2): more binding to RBC than at 4 °C
Pc4 Bound to RBC ([8]; delivery vehicle CRM, incubation time 0 min, room temperature): 59%
Pc4 Bound to RBC ([8]; delivery vehicle CRM, incubation time 5 min, room temperature): 58%
Pc4 Bound to RBC ([8]; delivery vehicle CRM, incubation time 30 min, room temperature): 58%
Pc4 Bound to RBC ([8]; delivery vehicle CRM, incubation time 90 min, room temperature): 64%
Pc4 Bound to RBC ([8]; delivery vehicle DMSO, incubation time 0 min, room temperature): 54%
Pc4 Bound to RBC ([8]; delivery vehicle DMSO, incubation time 5 min, room temperature): 54%
Pc4 Bound to RBC ([8]; delivery vehicle DMSO, incubation time 30 min, room temperature): 56%
Pc4 Bound to RBC ([8]; delivery vehicle DMSO, incubation time 90 min, room temperature): 54%
Pc4 Bound to RBC ([8]; delivery vehicle Liposomes (POPC:DOPS = 9:1), incubation time 0 min, room temperature): 6%
Pc4 Bound to RBC ([8]; delivery vehicle Liposomes (POPC:DOPS = 9:1), incubation time 5 min, room temperature): 9%
Pc4 Bound to RBC ([8]; delivery vehicle Liposomes (POPC:DOPS = 9:1), incubation time 30 min, room temperature): 15%
Pc4 Bound to RBC ([8]; delivery vehicle Liposomes (POPC:DOPS = 9:1), incubation time 90 min, room temperature): 44%
Pc4 Bound to RBC ([8]; liposomal preparation POPC:DOPS = 1:1, 35 minutes at 4° C.): 0.8%
Pc4 Bound to RBC ([8]; liposomal preparation POPC:DOPS = 1:2, 35 minutes at 4° C.): 1.0%
Pc4 Bound to RBC ([8]; liposomal preparation POPC:DOPS = 4:1, 35 minutes at 4° C.): 4.4%
Pc4 Bound to RBC ([8]; liposomal preparation POPC:DOPS = 9:1, 35 minutes at 4° C.): 4.8%
Pc4 Bound to RBC ([8]; liposomal preparation POPC:DOPS:PEG = 8:1:1, 35 minutes at 4° C.): 23.5%
Pc4 Bound to RBC ([8]; liposomal preparation POPC:DOPS:chol = 9:1:10, 35 minutes at 4° C.): 33.7%
Pc4 binding to red cells, effect of liposome composition ([8]; words, PEG, cholesterol or DOPS ratio as stated (Table 2)): progressively reduced binding of Pc4 to red cells
Light Dose (for ≥6 log10 virus kill) ([9]; Blood Bags (50 ml)): 30 J/cm2
Light Dose (for ≥6 log10 virus kill) ([9]; Test Tubes (3 ml)): 7 J/cm2
virus kill ([9]; at the light doses of Table 3): ≥ 6 log10
hemolysis development during storage, 668 nm compared with 700 nm LED ([10]; Pc4 2 μM in POPC:DOPS=4:1 liposomes, 10 J/cm^2 (FIG. 6)): much faster
rate of hemolysis during storage, 700 nm LED compared with untreated control ([10]; Pc4 2 μM in POPC:DOPS=4:1 liposomes, 10 J/cm^2 of 700 nm light (FIG. 6)): only slightly faster than in control
RBC damage / hemolysis at equivirucidal doses ([10]; Pc4 2 μM in POPC:DOPS=4:1 liposomes, 668 nm (FIG. 4)): least RBC damage; also recorded: minimal hemolysis
RBC hemolysis during storage, liposomes vs other vehicles ([10]; Pc4 2 μM, 90 J/cm2 broad band red light, 4° C. storage (FIG. 2)): less hemolysis
RBC hemolysis during storage, effect of incubation time ([10]; liposomal Pc4 2 μM, 90 J/cm2 broad band red light (FIG. 2)): incubation for 5 minutes was better than for 30 minutes
hemolysis following a virucidal light dose ([10]; liposomal Pc4, 10 J/cm^2, 700 nm, over 3 weeks storage, 30240 min, 2 µM): ≤ 1%
inactivation of VSV, 668 vs 700 nm LED ([11]; Pc4 2 μM in POPC:DOPS=4:1 liposomes, 4° C. (FIG. 5)): equally effective
rate of inactivation of VSV, dependence on pre-irradiation incubation time ([11]; liposomal Pc4 2 μM, broad band red light (FIG. 1)): does not depend on time of incubation of liposomal Pc4 prior to light exposure
VSV kill, effect of incubation temperature ([11]; room temperature vs 4° C.): not affected by the incubation temperature
